Test results from patent US6627411B2, “Method for evaluating matrix metalloprotease inhibitory activity” (Shionogi & Co., Ltd., priority 1999, dated 2003).

Experiments:
MMP-1 = molecular target: T1, MMP-1 (Homo sapiens, UniProt P03956); assay: MMP inhibitory activity IC50, MMP-1; format: biochemical
T1 sequence (P03956 100-469): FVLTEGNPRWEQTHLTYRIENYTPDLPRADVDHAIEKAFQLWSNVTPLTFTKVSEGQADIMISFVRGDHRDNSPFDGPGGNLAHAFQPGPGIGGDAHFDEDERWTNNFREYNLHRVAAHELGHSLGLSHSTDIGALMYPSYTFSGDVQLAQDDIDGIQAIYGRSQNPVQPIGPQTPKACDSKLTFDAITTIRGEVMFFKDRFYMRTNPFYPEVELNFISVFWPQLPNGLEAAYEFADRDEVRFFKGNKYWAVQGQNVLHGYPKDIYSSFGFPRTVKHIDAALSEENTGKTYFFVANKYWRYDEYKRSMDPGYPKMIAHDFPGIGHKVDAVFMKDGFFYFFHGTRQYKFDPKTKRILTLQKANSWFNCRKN

MMP-7 = molecular target: T2, MMP-7 (Homo sapiens, UniProt P09237); assay: MMP inhibitory activity IC50, MMP-7; format: biochemical
T2 sequence (P09237 95-267): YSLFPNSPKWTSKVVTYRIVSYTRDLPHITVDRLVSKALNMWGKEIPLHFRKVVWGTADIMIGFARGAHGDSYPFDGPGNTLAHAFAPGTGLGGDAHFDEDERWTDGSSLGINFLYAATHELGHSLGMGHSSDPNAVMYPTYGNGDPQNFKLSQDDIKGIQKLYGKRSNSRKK

MMP-14 = MMP-14 (Homo sapiens, UniProt P50281); assay: MMP inhibitory activity IC50, MMP-14; format: biochemical
[1] = test system: gelatin degradation in cancer tissue (human lung cancer cell line Ma44); assay: In situ zymography of tumor mass from Ma44-bearing nude mice after oral administration; format: in vivo; details: for Quantitative analysis using Optimas Ver.6 (brightness in each tissue/size in each tissue): 200 mg/kg orally, two hours after administration, vehicle 49.2; for inhibition of the gelatin degradation: nude mice; for Quantitative analysis using Optimas Ver.6: vehicle 53.4
Experimental: Fifteen g of acid-treated swine cutis gelatin was dissolved in 123 g of pure water, and the solution was added with 1.2 ml of 1,2-bis(vinylsulfonylacetamido)ethane (4%) as a hardening agent. The solution was uniformly applied to a polyethylene terephthalate film undercoated with gelatin so as to obtain a dried membrane having a thickness of about 7 μm, and the membrane was dried to obtain a gelatin thin membrane. The gelatin thin membrane was stored at room temperature until the use.
Human lung cancer cell line Ma44 (CANCER RESEARCH 59, 1231-35 (1999)) that was known to produce MMP-2 in a large amount was used. Nude mice (six weeks aged, female, CLEA Japan, Inc.) were transplanted intraperitoneally with 1×10^5 Ma44 cells, and, 14 days later, BPHA or (−)BPHA was administered orally to the animals at 200 mg/kg. As control, a vehicle (a physiological saline containing 0.4% Tween80, 0.5% carboxymethyl cellulose, and 0.9% benzyl alcohol) was similarly administered. Two hours after the administration, the cancer-bearing mice were autopsied to remove the tumor mass formed at the abdominal wall and the mesenterium, and the mass was subjected to the in situ zymography experiment.
The tumor mass was embedded in OCT Compound (SAKURA), and then Microtone/Cryostat TISSUE TEK II (Miles-Sankyo) was used to prepare […] having a thickness of 8 μm. The […] were placed gently onto the gelatin thin membrane previously prepared to give samples, and then the membranes were placed into a humid bath to prevent them from drying, followed by leaving the membranes to stand in an incubator at 37° C. After reacted for 3.5 hours, the thin membranes were taken out, and stained with a 1% Amido Black solution (Wako Pure Chemical Industries) for 15 minutes. Subsequently, the membranes were treated with a decolorizing solution (70% methanol, 10% acetic acid) for 10 minutes.
The cancer tissue on the thin membrane was observed under light microscopy to determine the area where the gelatin degradation was recognized. Additionally, the slide scanner (Nikon 35 mm film scanner: COOLSCAN II) was used to analyze quantitatively the tone with the software Optimas Ver.6 (Optimas Corporation).
was orally administered at dosages of 0.2, 2.0, 20.0, and 200.0 mg/kg in stead of the administrations of BPHA and (−)BPHA, treatments were conducted for in situ zymography.

MMP-2 = molecular target: T3, MMP-2 (Homo sapiens, UniProt P08253); assay: MMP inhibitory activity IC50, MMP-2; format: biochemical
T3 sequence (P08253 110-660): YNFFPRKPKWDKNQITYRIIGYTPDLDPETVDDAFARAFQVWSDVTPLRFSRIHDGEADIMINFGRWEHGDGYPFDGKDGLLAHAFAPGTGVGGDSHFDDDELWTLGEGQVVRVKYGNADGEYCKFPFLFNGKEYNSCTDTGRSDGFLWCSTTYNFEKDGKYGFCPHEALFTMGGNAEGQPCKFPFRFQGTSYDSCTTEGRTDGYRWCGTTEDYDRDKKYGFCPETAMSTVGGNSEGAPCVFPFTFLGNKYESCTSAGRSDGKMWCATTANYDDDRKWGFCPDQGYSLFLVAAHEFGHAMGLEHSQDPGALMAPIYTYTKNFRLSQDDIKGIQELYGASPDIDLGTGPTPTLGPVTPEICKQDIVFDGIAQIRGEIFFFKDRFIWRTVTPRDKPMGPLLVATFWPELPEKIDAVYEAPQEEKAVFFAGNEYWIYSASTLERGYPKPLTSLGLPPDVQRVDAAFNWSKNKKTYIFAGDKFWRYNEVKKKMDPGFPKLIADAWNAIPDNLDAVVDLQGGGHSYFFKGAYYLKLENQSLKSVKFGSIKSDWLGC

MMP-9 = MMP-9 (Homo sapiens, UniProt P14780); assay: MMP inhibitory activity IC50, MMP-9; format: biochemical
MMP-3 = MMP-3 (Homo sapiens, UniProt P08254); assay: MMP inhibitory activity IC50, MMP-3; format: biochemical
Sequence of MMP-3 (P08254 100-477, species assumed): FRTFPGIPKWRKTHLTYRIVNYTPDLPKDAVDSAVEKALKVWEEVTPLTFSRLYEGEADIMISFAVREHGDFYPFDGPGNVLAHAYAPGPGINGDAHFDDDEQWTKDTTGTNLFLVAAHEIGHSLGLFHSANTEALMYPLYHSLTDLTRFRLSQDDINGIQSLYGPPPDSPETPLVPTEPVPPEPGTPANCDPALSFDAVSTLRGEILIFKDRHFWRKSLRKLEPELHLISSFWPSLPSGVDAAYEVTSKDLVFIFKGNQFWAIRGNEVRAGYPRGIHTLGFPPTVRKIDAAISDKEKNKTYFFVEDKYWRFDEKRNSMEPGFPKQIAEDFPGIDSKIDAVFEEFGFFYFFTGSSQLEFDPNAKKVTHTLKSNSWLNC

Sequence of MMP-9 (P14780 94-707, species assumed): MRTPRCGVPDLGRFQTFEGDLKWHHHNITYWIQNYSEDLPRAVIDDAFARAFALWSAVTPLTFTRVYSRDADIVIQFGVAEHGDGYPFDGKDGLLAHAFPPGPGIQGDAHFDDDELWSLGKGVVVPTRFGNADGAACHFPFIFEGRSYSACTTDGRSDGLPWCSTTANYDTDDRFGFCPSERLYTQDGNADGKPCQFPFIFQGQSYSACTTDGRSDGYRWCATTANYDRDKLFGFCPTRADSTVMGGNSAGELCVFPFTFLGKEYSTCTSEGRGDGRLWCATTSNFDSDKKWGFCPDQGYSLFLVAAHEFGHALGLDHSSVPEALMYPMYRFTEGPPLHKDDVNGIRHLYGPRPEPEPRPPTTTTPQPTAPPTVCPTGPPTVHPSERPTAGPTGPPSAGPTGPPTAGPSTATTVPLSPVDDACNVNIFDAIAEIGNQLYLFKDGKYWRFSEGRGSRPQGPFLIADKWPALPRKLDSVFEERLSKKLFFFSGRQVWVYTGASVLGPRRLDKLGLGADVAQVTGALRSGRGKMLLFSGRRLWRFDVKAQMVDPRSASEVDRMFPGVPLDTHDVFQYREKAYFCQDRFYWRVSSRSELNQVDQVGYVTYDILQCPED

| IC50 (MMP-1) [nM] | IC50 (MMP-7) [nM] | IC50 (MMP-14) [nM] | IC50 (MMP-2) [nM] | IC50 (MMP-9) [nM] | IC50 (MMP-3) [nM] | SMILES | Quantitative analysis using Optimas Ver.6 (brightness in each tissue/size in each tissue) [1] | inhibition of the gelatin degradation ([1]; 0.2 mg/kg orally) | Quantitative analysis using Optimas Ver.6 ([1]; 0.2 mg/kg orally) | Quantitative analysis using Optimas Ver.6 ([1]; 2.0 mg/kg orally) | Quantitative analysis using Optimas Ver.6 ([1]; 20.0 mg/kg orally) | inhibition of the gelatin degradation ([1]; 200.0 mg/kg orally) | Quantitative analysis using Optimas Ver.6 ([1]; 200.0 mg/kg orally) | inhibition of the gelatin degradation ([1]; 20.0 to 2.0 mg/kg orally) |
| --- | --- | --- | --- | --- | --- | --- | --- | --- | --- | --- | --- | --- | --- | --- |
| > 1000 | > 1000 | > 1000 | > 1000 | > 1000 | > 1000 | O=C(NO)[C@H](Cc1ccccc1)NS(=O)(=O)c1ccc(-c2ccccc2)cc1 [(−)BPHA] | 40.1 |  |  |  |  |  |  |  |
| 974 | 795 | 17 | 12 | 16 | > 1000 | O=C(NO)[C@@H](Cc1ccccc1)NS(=O)(=O)c1ccc(-c2ccccc2)cc1 [BPHA] | 8.6 |  |  |  |  |  |  |  |
|  |  |  |  |  |  | O=C(O)[C@@H](Cc1c[nH]c2ccccc12)NS(=O)(=O)c1ccc(-c2nnn(-c3ccccc3)n2)cc1 [MMI-166] |  | merely partial inhibition | 41.3 | 28.6 | 13.7 | complete inhibition of the gelatin degradation | 5.3 | the inhibition was lowered in sequence |
